Assays:
[1] = test system: HCT-116; assay: Cell-Titer Glo Cell Growth Inhibition Assay, HCT116; type: cell-based; conditions: Homo sapiens, CellTiter-Glo, 72 h, read-out: CTG HCT116 IC50
Procedure: (§1) A549-L (human lung), BT474 (human breast), Colo 205 (human colon), H1299 (human lung), Hela (human cervix), HCT-116 (human colon), HN5 (human head and neck), HT29 (human colon), LNCap (human prostate), MCF7 (human breast), MDA-MB468 (human breast), MX-1 (human breast), RPMI 8226 (human peripheral blood), SKOV3 (human ovary) and P388 (murine leukemia) cell lines were cultured in RPMI1640 containing 10% fetal bovine serum at 37° C. in a 5% CO2 incubator. Cell lines were split into T75 flasks (Falcon #353136) two to three days prior to assay set up at density which yields approximately 70-80% confluency at time of harvest for assay. Cells were harvested using 0.25% trypsin with EDTA (Glibco/Invitrogen #25200-056), Cell counts were performed on cell suspensions using Trypan Blue exclusion staining, cells were then plated in 105 uL of culture media per well at the following densities in 96 well Costar #3916 black flat bottom plates: All human cell lines were plated at 500 cells/well. P388 were plated at 250 cells/well. All plates were placed at 5% CO2 37° C. overnight and then test compounds were added the following day. One plate of each cell type is treated with CellTiter-Glo (Promega #G7573) for a day 0 proliferation measurement and read as described below. The test compounds are prepared in clear U bottom polypropylene 96 well plates (Falcon #35-1190 with consecutive two fold dilutions. 9 uL of these dilutions was added into each well of the cell plates. The final concentration of DMSO in all wells is 0.15%. Cells were incubated at 37° C., 5% CO2 for 72 h. Following 72 h of incubation with compounds each plate was developed and read. CellTiter-Glo reagent was added to assay plates using a volume equivalent to the cell culture volume in the wells. Plates were shaken for approximately two minutes and incubated at room temperature for approximately 15 min and the chemiluminescent signal is read on the Victor V or Envison 2100 reader. […] Concentration of compound that inhibited 50% of cell growth (IC50) was analysis by 4 or 6 parameter fit of data using XLfit, value of no cell addition was subtracted from all samples for background.

[2] = test system: Colo 205; assay: Cell-Titer Glo Cell Growth Inhibition Assay, COLO205; type: cell-based; conditions: Homo sapiens, CellTiter-Glo, 72 h, read-out: CTG COLO205 IC50
Procedure: as §1

[3] = test system: A549-L; assay: Cell-Titer Glo Cell Growth Inhibition Assay, A549-L; type: cell-based; conditions: Homo sapiens, CellTiter-Glo, 72 h, read-out: CTG A549-L IC50
Procedure: as §1

[4] = test system: P388; assay: Cell-Titer Glo Cell Growth Inhibition Assay, P388; type: cell-based, murine; conditions: Mus musculus, CellTiter-Glo, 72 h, read-out: CTG P388 IC50
Procedure: as §1

[5] = Intravenous pharmacokinetics in CD-1 mouse; type: in vivo; conditions: plasma, iv bolus, male CD-1 mouse, dose 1.9-7.4 mg/kg per compound (Table 3); for clearance: read-out: Plasma CL
Procedure: Preliminary investigation of the intravenous pharmacokinetics of compounds of invention were carried out in fed conscious CD-1 mouse. Compounds were formulated as 1-10 mg/kg, 5 mL/kg, 1-2 mg/mL solution (Table 3). Twenty one male mice (n=3 mice per time point) (˜30 g) received dose solution by bolus injection in the tail vein. The formulation for iv were either 20% beta cyclodextrin in saline pH 3.5-6 or PEG400:ethanol:saline (50:15:35 v/v). Blood samples (˜0.4 mL) were collected terminally by cardiac puncture following anesthetization in a CO2 chamber at 2, 15, 30, 60 min, 2, 4, and 6 h following iv administration. Blood samples were collected into tubes containing heparin and placed on crushed ice promptly after collection. Plasma was collected by centrifugation, frozen and stored at about −80° C. prior to analysis. Blood or plasma concentrations were determined by LC/MS/MS equipped with an electrospray ion source and using calibration curves for the appropriate matrix. The lower level of quantitation (LLQ) was 10 ng/mL. Blood or plasma concentration-time data were analyzed by non-compartmental methods using the computer program WinNonlin Professional (version 4.1). Area under the blood or plasma concentration-time curve (AUC) was calculated using the linear trapezoidal rule for each incremental trapezoid up to Cmax, and the log trapezoidal rule for each trapezoid thereafter. The terminal elimination rate constant (λz) was derived from the log-linear disposition phase of the concentration-time curve using least-squares regression analysis with visual inspection of the data to determine the appropriate number of terminal data points for regression analysis.
Following iv administration, the total body clearance (CL) was estimated. CL was calculated by dividing the dose by AUC(0−t). The clearance values were assigned as follows. Low <30 mL/min/kg, moderate 30-70 mL/min/kg, high >70 mL/min/kg. The assignment was based on hepatic blood flow i.e. hepatic blood flow of 0-30% low, 30-70% moderate and 70-100% high. The hepatic blood flow in mouse is ˜100 mL/min/kg.

[6] = test system: SKOV3; assay: Cell-Titer Glo Cell Growth Inhibition Assay, SKOV-3; type: cell-based; conditions: Homo sapiens, SK-OV-3, CellTiter-Glo, 72 h, read-out: CTG SKOV-3 IC50
Procedure: as §1

[7] = test system: MX-1; assay: Cell-Titer Glo Cell Growth Inhibition Assay, MX-1; type: cell-based; conditions: Homo sapiens, MX1, CellTiter-Glo, 72 h, read-out: CTG MX-1 IC50
Procedure: as §1

[8] = test system: HT29; assay: Cell-Titer Glo Cell Growth Inhibition Assay, HT29; type: cell-based; conditions: Homo sapiens, HT-29, CellTiter-Glo, 72 h, read-out: CTG HT29 IC50
Procedure: as §1

[9] = biological target: T1, PLK1 kinase domain (Homo sapiens, UniProt P53350); assay: Assay for Inhibition of PLK1 (33P SPA kinase assay); type: biochemical; conditions: 2 nM PLK1 kinase domain, 1 μM ATP; read-out: PLK1 pIC50 (converted)
T1 construct: made in house; host or cells: baculovirus infected T. ni cells
Procedure: All procedures were performed at 4° C. Cells were lysed in 50 mM HEPES, 200 mM NaCl, 50 mM imidazole, 5% glycerol; pH 7.5. The homogenate was centrifuged at 14K rpm in a SLA-1500 rotor for 1 h and the supernatant filtered through a 1.2 micron filter. The supernatant was loaded onto a Nickel chelating Sepharose (Amersham Pharmacia) column and washed with lysis buffer. Protein was eluted using 20%, 30% and 100% buffer B steps where buffer B is 50 mM HEPES, 200 mM NaCl, 300 mM imidazole, 5% glycerol; pH 7.5. Fractions containing PLK were determined by SDS-PAGE. Fractions containing PLK were diluted five-fold with 50 mM HEPES, 1 mM DTT, 5% glycerol; pH 7.5, then loaded on an SP Sepharose (Amersham Pharmacia) column. After washing the column with 50 mM HEPES, 1 mM DTT, 5% glycerol; pH 7.5, PLK was step eluted with 50 mM HEPES, 1 mM DTT, 500 mM NaCl; 5% glycerol; pH 7.5. PLK was concentrated using a 10 kDa molecular weight cutoff membrane and then loaded onto a Superdex 200 gel filtration (Amersham Pharmacia) column equilibrated in 25 mM HEPES, 1 mM DTT, 500 mM NaCl, 5% glycerol; pH 7.5. Fractions containing PLK were determined by SDS-PAGE. PLK was pooled, aliquoted and stored at −80° C. Samples were quality controlled using mass spectrometry, N-terminal sequencing and amino acid analysis.
B. Enzyme activity +/− inhibitors was determined as follows:
All measurements were obtained under conditions where signal production increased linearly with time and enzyme. Test compounds were added to white 384-well assay plates (0.1 μL for 10 μL and some 20 μl assays, 1 μL for some 20 μL assays) at variable known concentrations in 100% DMSO. DMSO (1-5% final, as appropriate) and EDTA (65 mM in reaction) were used as controls.
Reaction Mix (10 or 20 μL) was quickly added to each well immediately following addition of enzyme via automated liquid handlers and incubated 1-1.5 h at 22° C. The 20 μL enzymatic reactions were stopped with 50 μL of stop mix (50 mM EDTA, 4.0 mg/mL Streptavidin SPA beads in Standard Dulbecco's PBS (without Mg^2+ and Ca^2+), 50 μM ATP) per well. The 10 μL reactions were stopped with 10 μL of stop mix (50 mM EDTA, 3.0 mg/mL Streptavidin-coupled SPA Imaging Beads (“LeadSeeker”) in Standard Dulbecco's PBS (without Mg^2+ and Ca^2+), 50 μM ATP) per well. Plates were sealed with clear plastic seals, spun at 500×g for 1 min or settled overnight, and counted in Packard TopCount for 30 seconds/well (regular SPA) or imaged using a Viewlux imager (LeadSeeker SPA). Signal above background (EDTA controls) was converted to percent inhibition relative to that obtained in control (DMSO-only) wells.

[10] = test system: H460; assay: Methylene Blue Cell Growth Inhibition Assay, H460; type: cell-based; conditions: Homo sapiens, NCI-H460, 72 h, read-out: MEB H460 IC50
Procedure: (§2) Normal human foreskin fibroblasts (HFF), human colon (HCT116, RKO), lung (H460, A549) and breast (MCF7) tumor cell lines were cultured in high glucose DMEM (Life Technologies) containing 10% fetal bovine serum (FBS) at 37° C. in a humidified 5% CO2, 95% air incubator. Cells were harvested using trypsin/EDTA, counted using a haemocytometer, and plated in 100 μL of culture media per well, at the following densities, in a 96-well tissue culture plate (Falcon 3075): HFF 5,000 cells/well, HCT116 3,000 cells/well, RKO 2,500 cells/well, H460 2,500 cells/well, A549 5,000 cells/well, MCF7 4,000 cells/well. The next day, compounds were diluted in low glucose DMEM containing 100 μg/mL gentamicin, at twice the final required concentration, from 10 mM stock solutions in DMSO. 100 μL/well of these dilutions were added to the 100 μL of media currently in the assay plates. Medium containing 0.6% DMSO was added to control wells. The final concentration of DMSO in all wells was 0.3%. Cells were incubated at 37° C., 5% CO2 for 72 h. Medium was removed by aspiration. Cell biomass was estimated by staining cells with 80 μL per well methylene blue (Sigma M9140, 0.5% in 50:50 ethanol:water), and incubation at room temperature for 30-60 min. Stain was removed by aspiration and the plates rinsed by immersion in water, then air-dried. To release stain from the cells, 100 μL of solubilization solution was added (1% N-lauroyl sarcosine, Sodium salt, Sigma L5125, in PBS), and plates were shaken gently for about 30 min. Optical density at 620 nm was measured on a microplate reader. Percent inhibition of cell growth was calculated relative to vehicle treated control wells. Concentration of compound that inhibits 50% of cell growth (IC50) was interpolated using nonlinear regression (Levenberg-Marquardt) and the equation, y=Vmax*(1−(x/(K+x)))+Y2, where “K” was equal to the IC50.

[11] = test system: Normal human foreskin fibroblasts (HFF); assay: Methylene Blue Cell Growth Inhibition Assay, HFF; type: cell-based; conditions: Fibroblast, 72 h, read-out: MEB HFF IC50
Procedure: as §2

[12] = test system: RKO; assay: Methylene Blue Cell Growth Inhibition Assay, RKO; type: cell-based; conditions: Homo sapiens, 72 h, read-out: MEB RKO IC50
Procedure: as §2

[13] = test system: A549; assay: Methylene Blue Cell Growth Inhibition Assay, A549; type: cell-based; conditions: Homo sapiens, 72 h, read-out: MEB A549 IC50
Procedure: as §2

[14] = test system: MX-1; assay: Methylene Blue Cell Growth Inhibition Assay, MX-1; type: cell-based; conditions: Homo sapiens, MX1, 72 h, read-out: MEB MX-1 IC50
[15] = test system: HCT116; assay: Methylene Blue Cell Growth Inhibition Assay, HCT116; type: cell-based; conditions: Homo sapiens, HCT-116, 72 h, read-out: MEB HCT116 IC50
Procedure: as §2

T1 sequence (P53350 21-346): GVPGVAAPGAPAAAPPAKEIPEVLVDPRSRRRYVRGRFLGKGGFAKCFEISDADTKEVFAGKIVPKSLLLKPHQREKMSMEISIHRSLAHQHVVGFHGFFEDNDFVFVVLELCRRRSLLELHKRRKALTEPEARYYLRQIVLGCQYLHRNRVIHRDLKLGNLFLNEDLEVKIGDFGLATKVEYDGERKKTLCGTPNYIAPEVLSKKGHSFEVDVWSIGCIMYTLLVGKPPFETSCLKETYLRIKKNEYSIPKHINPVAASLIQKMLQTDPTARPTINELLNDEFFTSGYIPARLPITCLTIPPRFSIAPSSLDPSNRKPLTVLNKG

IC50 [1] [nM]	IC50 [2] [nM]	IC50 [3] [nM]	IC50 [4] [nM]	AUC(0-t) [5] [ng·h/mL]	clearance [5] [mL/min/kg]	IC50 [6] [nM]	IC50 [8] [nM]	IC50 [9] [nM]	IC50 [10] [nM]	IC50 [13] [nM]	IC50 [15] [nM]	SMILES	IC50 [7] [nM]	IC50 [11] [nM]	IC50 [12] [nM]	IC50 [14] [nM]
< 100	< 100	< 100	100 to 1000	2200	32.3	100 to 1000	< 100					C[C@@H](Oc1cc(-n2cnc3cc(-c4ccnc(N5CCN(C)CC5)c4)ccc32)sc1C(N)=O)c1ccccc1C(F)(F)F [Example 2, 5-{5-[2-(4-Methyl-1-piperazinyl)-4-pyridinyl]-1H-benzimidazol-1-yl}-3-({(1R)-1-[2-(trifluoromethyl)phenyl]ethyl}oxy)-2-thiophenecarboxamide]	< 100			
< 100	< 100	< 100	< 100	1850	35.6	< 100	< 100	< 10				C[C@@H](Oc1cc(-n2cnc3cc(-c4ccnc(NC5CCN(C)CC5)c4)ccc32)sc1C(N)=O)c1ccccc1C(F)(F)F [Example 3, 5-(5-{2-[(1-Methyl-4-piperidinyl)amino]-4-pyridinyl}-1H-benzimidazol-1-yl)-3-({(1R)-1-[2-(trifluoromethyl)phenyl]ethyl}oxy)-2-thiophenecarboxamide]	< 100			
< 100				1170	37.9				< 100	< 100	< 100	C[C@@H](Oc1cc(-n2cnc3cc(-c4ccnc(N)c4)ccc32)sc1C(N)=O)c1ccccc1C(F)(F)F [Example 4, 5-[5-(2-Amino-4-pyridinyl)-1H-benzimidazol-1-yl]-3-({(1R)-1-[2-(trifluoromethyl)phenyl]ethyl}oxy)-2-thiophenecarboxamide]		100 to 1000	< 100	< 100
< 100	< 100	< 100	100 to 1000	2780	18.6	< 100	< 100					C[C@@H](Oc1cc(-n2cnc3cc(-c4ccc(NC5CCN(C)CC5)nc4)ccc32)sc1C(N)=O)c1ccccc1Cl [Example 6, 3-{[(1R)-1-(2-Chlorophenyl)ethyl]oxy}-5-(5-{6-[(1-methyl-4-piperidinyl)amino]-3-pyridinyl}-1H-benzimidazol-1-yl)-2-thiophenecarboxamide]	< 100			

— patent US20080214563A1, “Benzimidazole Thiophene Compounds As Plk Modulators” (priority 2005, published 2008)
